# Experimental data from ChEMBL document CHEMBL1201862, “PubChem BioAssay data set” (2004).
#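 Five concentrations, 48 hours, 96-well plates. GI50: concentration for 50% inhibition of growth.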 The source made the active and inactive calls. Rule as the data show it: active = GI50 up to about 1.1 µM and inactive = higher.
# Columns and labels:
# Test in all cases: DTP human tumour cell line panel, 48 h
# SF-539 = system: SF-539
# SNB-75 = system: SNB-75
# SK-MEL-2 = system: SK-MEL-2
# U-251 = system: U-251
# BT-549 = system: BT-549
# T47D = system: T47D
# NCI-H460 = system: NCI-H460
# CAKI-1 = system: CAKI-1
# COLO 205 = system: COLO 205
# NCI-H23 = system: NCI-H23
# PC-3 = system: PC-3
# KM12 = system: KM12
# IGROV-1 = system: IGROV-1
# OVCAR-5 = system: OVCAR-5
# TK-10 = system: TK-10
# SK-OV-3 = system: SK-OV-3
# UACC-257 = system: UACC-257
# OVCAR-8 = system: OVCAR-8
# NCI-H226 = system: NCI-H226
# MDA-N = system: MDA-N
# HT-29 = system: HT-29
# OVCAR-4 = system: OVCAR-4
# M14 = system: M14
# HCT-15 = system: HCT-15
# ACHN = system: ACHN
# HCC 2998 = system: HCC 2998
# K562 = system: K562
# CCRF-CEM = system: CCRF-CEM
# NCI-H522 = system: NCI-H522
# SW-620 = system: SW-620
# RXF 393 = system: RXF 393
# HL-60 = system: HL-60
# HOP-62 = system: HOP-62
# RPMI-8226 = system: RPMI-8226
# 786-0 = system: 786-0
# Hs-578T = system: Hs-578T
# SF-268 = system: SF-268
# MOLT-4 = system: MOLT-4
# DU-145 = system: DU-145
# OVCAR-3 = system: OVCAR-3
# EKVX = system: EKVX
# Malme-3M = system: Malme-3M
# A498 = system: A498
# MDA-MB-231 = system: MDA-MB-231
# LOX IMVI = system: LOX IMVI
# SK-MEL-28 = system: SK-MEL-28
# MCF7 = system: MCF7
# SF-295 = system: SF-295
# NCI/ADR-RES = system: NCI/ADR-RES
# UACC-62 = system: UACC-62
# SNB-19 = system: SNB-19
# MDA-MB-435 = system: MDA-MB-435
# HCT-116 = system: HCT-116
# SN12C = system: SN12C
# SK-MEL-5 = system: SK-MEL-5
# A549 = system: A549
structure (smiles),measurement,setting,value
O=c1cc(N2CCOCC2)[nH]c(=O)n1-c1ccc(F)cc1,GI50,SF-539,> 100 µM (inactive)
same,GI50,SNB-75,> 100 µM (inactive)
same,GI50,SK-MEL-2,> 100 µM (inactive)
same,GI50,U-251,> 100 µM (inactive)
same,GI50,BT-549,> 100 µM (inactive)
same,GI50,T47D,> 100 µM (inactive)
same,GI50,NCI-H460,> 100 µM (inactive)
same,GI50,CAKI-1,> 100 µM (inactive)
same,GI50,COLO 205,> 100 µM (inactive)
same,GI50,NCI-H23,> 100 µM (inactive)
same,GI50,PC-3,> 100 µM (inactive)
same,GI50,KM12,> 100 µM (inactive)
same,GI50,IGROV-1,> 100 µM (inactive)
same,GI50,OVCAR-5,> 100 µM (inactive)
same,GI50,TK-10,> 100 µM (inactive)
same,GI50,SK-OV-3,> 100 µM (inactive)
same,GI50,UACC-257,> 100 µM (inactive)
same,GI50,OVCAR-8,> 100 µM (inactive)
same,GI50,NCI-H226,> 100 µM (inactive)
same,GI50,MDA-N,> 100 µM (inactive)
same,GI50,HT-29,> 100 µM (inactive)
same,GI50,OVCAR-4,> 100 µM (inactive)
same,GI50,M14,> 100 µM (inactive)
same,GI50,HCT-15,> 100 µM
same,GI50,ACHN,> 100 µM (inactive)
same,GI50,HCC 2998,> 100 µM (inactive)
same,GI50,K562,> 100 µM (inactive)
same,GI50,CCRF-CEM,> 100 µM (inactive)
same,GI50,NCI-H522,> 100 µM (inactive)
same,GI50,SW-620,> 100 µM (inactive)
same,GI50,RXF 393,> 100 µM (inactive)
same,GI50,HL-60,> 100 µM (inactive)
same,GI50,HOP-62,> 100 µM (inactive)
same,GI50,RPMI-8226,> 100 µM (inactive)
same,GI50,786-0,> 100 µM (inactive)
same,GI50,Hs-578T,> 100 µM (inactive)
same,GI50,SF-268,> 100 µM (inactive)
same,GI50,MOLT-4,> 100 µM (inactive)
same,GI50,DU-145,> 100 µM (inactive)
same,GI50,OVCAR-3,> 100 µM (inactive)
same,GI50,EKVX,> 100 µM (inactive)
same,GI50,Malme-3M,> 100 µM (inactive)
same,GI50,A498,> 100 µM (inactive)
same,GI50,MDA-MB-231,> 100 µM (inactive)
same,GI50,LOX IMVI,> 100 µM (inactive)
same,GI50,SK-MEL-28,> 100 µM (inactive)
same,GI50,MCF7,> 100 µM (inactive)
same,GI50,SF-295,> 100 µM (inactive)
same,GI50,NCI/ADR-RES,> 100 µM (inactive)
same,GI50,UACC-62,> 100 µM (inactive)
same,GI50,SNB-19,> 100 µM (inactive)
same,GI50,MDA-MB-435,> 100 µM (inactive)
same,GI50,HCT-116,> 100 µM (inactive)
same,GI50,SN12C,> 100 µM (inactive)
Cc1cc(S(=O)(=O)Nc2nc(N)n[nH]2)c(S)cc1Cl,GI50,SF-539,> 10 µM (inactive)
same,GI50,SNB-75,> 10 µM (inactive)
same,GI50,SK-MEL-2,> 10 µM (inactive)
same,GI50,U-251,> 10 µM (inactive)
same,GI50,BT-549,> 10 µM (inactive)
same,GI50,T47D,> 10 µM (inactive)
same,GI50,NCI-H460,> 10 µM (inactive)
same,GI50,CAKI-1,> 10 µM (inactive)
same,GI50,COLO 205,> 10 µM (inactive)
same,GI50,NCI-H23,> 10 µM (inactive)
same,GI50,PC-3,> 10 µM (inactive)
same,GI50,KM12,> 10 µM (inactive)
same,GI50,IGROV-1,> 10 µM (inactive)
same,GI50,OVCAR-5,> 10 µM (inactive)
same,GI50,TK-10,> 10 µM (inactive)
same,GI50,SK-OV-3,> 10 µM (inactive)
same,GI50,UACC-257,> 10 µM (inactive)
same,GI50,OVCAR-8,> 10 µM (inactive)
same,GI50,NCI-H226,> 10 µM (inactive)
same,GI50,MDA-N,> 10 µM (inactive)
same,GI50,HT-29,> 10 µM (inactive)
same,GI50,OVCAR-4,> 10 µM (inactive)
same,GI50,M14,> 10 µM (inactive)
same,GI50,HCT-15,> 10 µM
same,GI50,ACHN,> 10 µM (inactive)
same,GI50,HCC 2998,> 10 µM (inactive)
same,GI50,K562,> 10 µM (inactive)
same,GI50,CCRF-CEM,> 10 µM (inactive)
same,GI50,NCI-H522,> 10 µM (inactive)
same,GI50,SW-620,> 10 µM (inactive)
same,GI50,RXF 393,> 10 µM (inactive)
same,GI50,HL-60,> 10 µM (inactive)
same,GI50,HOP-62,> 10 µM (inactive)
same,GI50,RPMI-8226,> 10 µM (inactive)
same,GI50,786-0,> 10 µM (inactive)
same,GI50,Hs-578T,> 10 µM (inactive)
same,GI50,SF-268,> 10 µM (inactive)
same,GI50,MOLT-4,> 10 µM (inactive)
same,GI50,DU-145,> 10 µM (inactive)
same,GI50,OVCAR-3,> 10 µM (inactive)
same,GI50,EKVX,> 10 µM (inactive)
same,GI50,SK-MEL-5,> 10 µM (inactive)
same,GI50,Malme-3M,> 10 µM (inactive)
same,GI50,A498,> 10 µM (inactive)
same,GI50,MDA-MB-231,> 10 µM (inactive)
same,GI50,LOX IMVI,> 10 µM (inactive)
same,GI50,SK-MEL-28,> 10 µM (inactive)
same,GI50,MCF7,> 10 µM (inactive)
same,GI50,SF-295,> 10 µM (inactive)
same,GI50,A549,> 10 µM (inactive)
same,GI50,NCI/ADR-RES,> 10 µM (inactive)
same,GI50,UACC-62,> 10 µM (inactive)
same,GI50,SNB-19,> 10 µM (inactive)
same,GI50,MDA-MB-435,> 10 µM (inactive)
same,GI50,HCT-116,> 10 µM (inactive)
same,GI50,SN12C,> 10 µM (inactive)
